What is called MBC is the lowest tested concentration that kills the bacteria rather than only halting them.

Each structure is given as a SMILES string. Converted amounts (≈) assume the structure as drawn. The source made the active and inactive calls. The rule behind the calls is not given here.

Activity and MBC data for 2 molecules are collected here from ChEMBL document CHEMBL1275438, “The human CXC chemokine granulocyte chemotactic protein 2 (GCP-2)/CXCL6 possesses membrane-disrupting properties and is antibacterial” (2008).

Holding throughout (format): functional
Test [1] has as its system Lipid bilayer. Briefly: Induction of negatively charged DOPE/DOPG liposome disruption assessed as percent leakage after <1000 sec by spectrometry.
The test system of test [2] is Lipid bilayer. Briefly: Induction of negatively charged DOPE/DOPG liposome disruption by spectrometry in presence of 150 mM sodium chloride.
The next test concerns Streptococcus pyogenes. In words: Antibacterial activity against Streptococcus pyogenes AP1 after 1 hr by bactericidal assay.
A further test has as its system Escherichia coli. In words: Antibacterial activity against Escherichia coli 37.4 after 1 hr by bactericidal assay.

Regarding `CC[C@H](C)[C@H](NC(=O)[C@H](CCCCN)NC(=O)[C@H](CCC(N)=O)NC(=O)[C@@H](NC(=O)[C@@H](NC(=O)[C@H](CCCCN)NC(=O)[C@H](CCCCN)NC(=O)[C@H](CC(C)C)NC(=O)[C@H](Cc1ccccc1)NC(=O)[C@@H]1CCCN1C(=O)[C@@H](C)N)C(C)C)[C@@H](C)CC)C(=O)N[C@@H](CC(C)C)C(=O)N[C@@H](CC(=O)O)C(=O)N[C@@H](CO)C(=O)NCC(=O)N[C@@H](CC(N)=O)C(=O)N[C@@H](CCCCN)C(=O)N[C@@H](CCCCN)C(=O)N[C@@H](CC(N)=O)C(=O)O`, the Activity in the test with Lipid bilayer [1] came out at 70%. Further, the result in the test on Lipid bilayer [2] was Active.

As to `CC[C@H](C)[C@H](NC(=O)[C@H](CCCCN)NC(=O)[C@H](CCC(N)=O)NC(=O)[C@@H](NC(=O)[C@@H](NC(=O)[C@H](CCCCN)NC(=O)[C@H](CCCCN)NC(=O)[C@H](CC(C)C)NC(=O)[C@H](Cc1ccccc1)NC(=O)[C@@H]1CCCN1C(=O)[C@H](C)N)C(C)C)[C@@H](C)CC)C(=O)N[C@@H](CC(C)C)C(=O)N[C@@H](CC(=O)O)C(=O)N[C@@H](CO)C(=O)NCC(=O)N[C@@H](CC(N)=O)C(=O)N[C@@H](CCCCN)C(=O)N[C@@H](CCCCN)C(=O)N[C@@H](CC(N)=O)C(=O)O`, the MBC is 9.5 µM (≈ 20.3 µg/mL) in the test on Streptococcus pyogenes; 5.7 µM (≈ 12.2 µg/mL) in the test with Streptococcus pyogenes (Streptococcus pyogenes, AP1, 1 h, read-out: MBC); 9.5 µM (≈ 20.3 µg/mL) in the test with Escherichia coli; 5.6 µM (≈ 12 µg/mL) in the test with Escherichia coli (Escherichia coli, 37.4, 1 h, read-out: MBC).
